In brackets after ≈: the same amount, converted by molar mass. Like-named read-outs stand apart in the source and are kept apart here.
Assays:
[1] = cited from earlier work
[2] = system: Chloroquine-Resistant (K1) strain of P. falciparum; settings: parent compound; cited from earlier work
[3] = system: Chloroquine-Sensitive (NF54) strain of P. falciparum; settings: parent compound; cited from earlier work
[4] = single oral dose as low as 20 mg/kg; cited from earlier work
[5] = system: P. falciparum parasites harboring mutations in the Kelch protein, K13; settings: cited from earlier work
[6] = cited from earlier work; remark: listed apart in the source
[7] = system: Chloroquine-Resistant (K1) strain of P. falciparum; assay type: cell-based; settings: for IC50 K1: 72 h [3H]-hypoxanthine incorporation, mean of two biological replicates
[8] = system: Chloroquine-Sensitive (NF54) strain of P. falciparum; assay type: cell-based; settings: 72 h [3H]-hypoxanthine incorporation; mean of two biological replicates

CC(C)(N)CNC(=O)C[C@H]1CC[C@]2(CC1)OO[C@]1(O2)C2CC3CC(C2)CC1C3 [Arterolane]
in vivo half-life ([1]; in vivo): 2 to 4 h

c1cc([C@H]2CC[C@]3(CC2)OO[C@]2(O3)C3CC4CC(C3)CC2C4)ccc1OCCN1CCOCC1 [compound 2]
IC50 K1 [2]: 1.6 ng/mL (≈ 3.41 nM) | IC50 NF54 [3]: 1.9 ng/mL (≈ 4.05 nM) | cure rate [4]: 100% | activity against K13 mutant parasites [5]: active | safety ([6]; up to a dose of 1600 mg): good safety properties

[O-][N+]1(CCOc2ccc(C3CCC4(CC3)OOC3(O4)C4CC5CC(C4)CC3C5)cc2)CCOCC1 (stereo not shown) [compound 8]
IC50 K1 [7]: 1.4 ng/mL (≈ 2.88 nM) | in vitro activity against P. falciparum relative to parent 2 ([7]; K1 and NF54 strains, Table 1): comparable to 2 | IC50 NF54 [8]: 2.3 ng/mL (≈ 4.74 nM) | relative area under the plasma concentration versus time curve (AUC) of metabolites ([6]; human, in vivo): comparatively lower AUC values

[O-][N+]1(CCOc2ccc(C3CCC4(CC3)OOC3(O4)C4CC5CC3CC(O)(C5)C4)cc2)CCOCC1 (stereo not shown) [compound 11]
IC50 K1 [7]: >100/>100 ng/mL | IC50 NF54 [8]: >100/>100 ng/mL

C[C@H]1[C@@H](O)O[C@@H]2O[C@@]3(C)CC[C@H]4[C@H](C)CC[C@@H]1[C@@]24OO3 [dihydroartemisinin]
in vivo half-life [1]: ~ 2 h

From article PMC8802618 (ACS infectious diseases, 2021)
